In brackets after ≈: the same amount, converted by molar mass. Where two headings read alike, the source gives them in different places. Bounds are passed on as bounds.

Type in all cases: cell-based
Test [1] deals with Faecalibacterium prausnitzii A2-165. The experiment in a line: MIC by broth microdilution (CLSI), type strain. To be noted: for susceptibility category (S/I/R) by MIC breakpoints: strain A2-165; for MIC: test strain A2-165.
The test system of test [2] is Faecalibacterium prausnitzii EB-FPYYK1. Kind of test: MIC by broth microdilution (CLSI). To be noted: for susceptibility category (S/I/R) by MIC breakpoints: strain EB-FPYYK1; for MIC: test strain EB-FPYYK1.
The test system of test [3] is Faecalibacterium prausnitzii EB-FPDK9. The experiment in a line: MIC by broth microdilution (CLSI). The conditions noted are these: for susceptibility category (S/I/R) by MIC breakpoints: strain EB-FPDK9; for MIC: test strain EB-FPDK9.
In test [4] the test system is Bacteroides thetiotaomicron ATCC 29741. The experiment in a line: MIC by broth microdilution (CLSI), QC strain.
Test [5] concerns Faecalibacterium prausnitzii EB-FPDK11. The experiment in a line: MIC by broth microdilution (CLSI). To be noted: for susceptibility category (S/I/R) by MIC breakpoints: strain EB-FPDK11; for MIC: test strain EB-FPDK11.
Test [6] concerns Faecalibacterium prausnitzii EB-FPDK3. The experiment in a line: MIC by broth microdilution (CLSI). To be noted: for susceptibility category (S/I/R) by MIC breakpoints: strain EB-FPDK3; for MIC: test strain EB-FPDK3.
The subject of test [7] is Faecalibacterium prausnitzii strains of the present invention. Kind of test: Antimicrobial susceptibility, summary for all strains. To be noted: all Faecalibacterium prausnitzii strains of Table 5.
[8] abbreviates: Faecalibacterium prausnitzii, A2165, read-out: MIC.
Setting [9] is: Faecalibacterium prausnitzii, EBFPYYK1, read-out: MIC.
Setting [10] is: Faecalibacterium prausnitzii, EBFPDK9, read-out: MIC.
The mark [11] stands for this setting: Faecalibacterium prausnitzii, EBFPDK11, read-out: MIC.
Setting [12] is: Faecalibacterium prausnitzii, EBFPDK3, read-out: MIC.

Take `CO/N=C(\C(=O)N[C@@H]1C(=O)N2C(C(=O)O)=CCS[C@H]12)c1csc(N)n1` [CTZ, ceftizoxime]: the “susceptibility category (S/I/R) by MIC breakpoints” value (shortened to “susceptibility category (S/I/R)”) is on record as “(I) (64)” in test [1] (CTZ breakpoints); “(R) (≥128)” in test [2] (CTZ breakpoints); “(R) (≥128)” in test [3] (CTZ breakpoints); “(R) (≥128)” in test [5] (CTZ breakpoints); “(S) (≤32)” in test [6] (CTZ breakpoints). In addition, the MIC in test [1] (setting [8]) worked out at 64 µg/mL (≈ 167 µM); in test [2] (setting [9]) it was 128 µg/mL (≈ 334 µM); in test [3] (setting [10]) it was 128 µg/mL (≈ 334 µM); in test [4] (Bacteroides, ATCC29741), 16 µg/mL (≈ 41.7 µM); in test [5] (setting [11]) it was 128 µg/mL (≈ 334 µM); in test [6] (setting [12]), 16 µg/mL (≈ 41.7 µM).

`Cc1ncc([N+](=O)[O-])n1CCO` [MTZ, metronidazole]: the “susceptibility or resistance of all the strains to the antibiotic” value in test [7] was “susceptibility”. Besides, the minimal inhibitory concentration (MIC) is 4 µg/mL (≈ 23.4 µM) in test [1] (setting [8]); 2 µg/mL (≈ 11.7 µM) in test [2] (setting [9]); below 0.25 µg/mL in test [3] (setting [10]); 2 µg/mL (≈ 11.7 µM) in test [4] (Bacteroides, ATCC29741); 0.5 µg/mL (≈ 2.92 µM) in test [5] (setting [11]); 1 µg/mL (≈ 5.84 µM) in test [6] (setting [12]). Moreover, the “susceptibility category (S/I/R)” value in test [1] (MTZ breakpoints), in test [2] (MTZ breakpoints), in test [3] (MTZ breakpoints), in test [5] (MTZ breakpoints) and in test [6] (MTZ breakpoints) was “(S) (≤8)” in each case.

`C[C@@H](O)[C@H]1C(=O)N2C(C(=O)O)=C(S[C@@H]3CN[C@H](C(=O)N(C)C)C3)[C@H](C)[C@H]12` [MEM, meropenem]: the minimal inhibitory concentration (MIC) in test [1] (setting [8]) was above 64 µg/mL; in test [2] (setting [9]), above 64 µg/mL; in test [3] (setting [10]), above 64 µg/mL; in test [4] (Bacteroides, ATCC29741), 0.5 µg/mL (≈ 1.3 µM); in test [5] (setting [11]) it was above 64 µg/mL; in test [6] (setting [12]) it was above 64 µg/mL. Also, the “susceptibility category (S/I/R)” value in test [1] (MEM breakpoints), in test [2] (MEM breakpoints), in test [3] (MEM breakpoints), in test [5] (MEM breakpoints) and in test [6] (MEM breakpoints) was “(R) (≥16)” throughout.

Turning to `COc1c(N2C[C@@H]3CCCN[C@@H]3C2)c(F)cc2c(=O)c(C(=O)O)cn(C3CC3)c12` [MXF, moxifloxacin], the MIC in test [1] (setting [8]) is 16 µg/mL (≈ 39.9 µM); in test [2] (setting [9]) it was above 32 µg/mL; in test [3] (setting [10]), 32 µg/mL (≈ 79.7 µM); in test [4] (Bacteroides, ATCC29741) it was 8 µg/mL (≈ 19.9 µM); in test [5] (setting [11]) it was 32 µg/mL (≈ 79.7 µM); in test [6] (setting [12]), above 32 µg/mL. Further, the “susceptibility category (S/I/R)” value in test [1] (MXF breakpoints), in test [2] (MXF breakpoints), in test [3] (MXF breakpoints), in test [5] (MXF breakpoints) and in test [6] (MXF breakpoints) was “(R) (≥8)” in each case.

With `CCC[C@@H]1C[C@@H](C(=O)N[C@@H]([C@H]2O[C@H](SC)[C@H](O)[C@@H](O)[C@H]2O)[C@H](C)Cl)N(C)C1` [CLI, clindamycin], the “susceptibility category (S/I/R)” value in test [1] (CLI breakpoints), in test [2] (CLI breakpoints), in test [3] (CLI breakpoints), in test [5] (CLI breakpoints) and in test [6] (CLI breakpoints) was “(S) (≤2)” each time. Moreover, the MIC in test [1] (setting [8]), in test [2] (setting [9]), in test [3] (setting [10]), in test [5] (setting [11]) and in test [6] (setting [12]) was at most 0.125 µg/mL each time.

As for piperacillin-tazobactam [PTZ], the “susceptibility category (S/I/R)” value is “(R) (≥128/4)” in test [1] (PTZ breakpoints); “(R) (≥128/4)” in test [2] (PTZ breakpoints); “(S) (≤32/4)” in test [3] (PTZ breakpoints); “(R) (≥128/4)” in test [5] (PTZ breakpoints); “(S) (≤32/4)” in test [6] (PTZ breakpoints). The MIC in test [1] was >256/4; in test [2] it was >256/4; in test [3], 32/4; in test [4] (QC ATCC 29741), 8/4; in test [5] it was >256/4; in test [6], 32/4.

With `O=C(N[C@H](CO)[C@H](O)c1ccc([N+](=O)[O-])cc1)C(Cl)Cl` [CHL, chloramphenicol], the “susceptibility category (S/I/R)” value is on record as “(R) (≥32)” in test [1] (CHL breakpoints); “(R) (≥32)” in test [2] (CHL breakpoints); “(R) (≥32)” in test [3] (CHL breakpoints); “(S) (≤8)” in test [5] (CHL breakpoints); “(S) (≤8)” in test [6] (CHL breakpoints). For the same molecule, the MIC is 64 µg/mL (≈ 198 µM) in test [1] (setting [8]); 256 µg/mL (≈ 792 µM) in test [2] (setting [9]); 32 µg/mL (≈ 99 µM) in test [3] (setting [10]); 8 µg/mL (≈ 24.8 µM) in test [4] (Bacteroides, ATCC29741); 8 µg/mL (≈ 24.8 µM) in test [5] (setting [11]); 8 µg/mL (≈ 24.8 µM) in test [6] (setting [12]).
